Test results as given in patent publication US20240082277A1, “MODIFIED ANTIHISTAMINE COMPOSITION AND ANTIVIRAL TREATMENT” (priority 2022, published 2024).
Converted amounts (≈) assume the structure as drawn. Structures can show the parent of a compound that is named as a salt. Where two headings read alike, the source gives them in different places.

Tests used:
[1] = molecular target: T1, human H1 histamine receptors (HRH1) (Homo sapiens, UniProt P35367); test: HRH1 antagonist calcium flux assay (Fluo-8, FLIPR TETRA) in CHO-K1 cells; type: cell-based
T1 construct: expressed in transfected cells; host or cells: CHO-K1

[2] = test system: SARS-CoV-2 Delta (B.1.617.2)
[3] = test system: SARS-CoV-2 Delta (B.1.617.2); test: microbe, parasite or virus in culture
[4] = test system: SARS-CoV-2 Omicron (B.1.1.529); test: microbe, parasite or virus in culture
in vitro = conditions: African green monkey, Cytotoxicity (CC50)
[5] = test system: SARS-CoV-2 Omicron (B.1.1.529)
[6] = CHO-K1, read-out: Normalized % Inhibition
[7] = Severe acute respiratory syndrome coronavirus 2, VeroE6/TMPRSS2, read-out: % cell viability

T1 sequence (P35367 whole entry): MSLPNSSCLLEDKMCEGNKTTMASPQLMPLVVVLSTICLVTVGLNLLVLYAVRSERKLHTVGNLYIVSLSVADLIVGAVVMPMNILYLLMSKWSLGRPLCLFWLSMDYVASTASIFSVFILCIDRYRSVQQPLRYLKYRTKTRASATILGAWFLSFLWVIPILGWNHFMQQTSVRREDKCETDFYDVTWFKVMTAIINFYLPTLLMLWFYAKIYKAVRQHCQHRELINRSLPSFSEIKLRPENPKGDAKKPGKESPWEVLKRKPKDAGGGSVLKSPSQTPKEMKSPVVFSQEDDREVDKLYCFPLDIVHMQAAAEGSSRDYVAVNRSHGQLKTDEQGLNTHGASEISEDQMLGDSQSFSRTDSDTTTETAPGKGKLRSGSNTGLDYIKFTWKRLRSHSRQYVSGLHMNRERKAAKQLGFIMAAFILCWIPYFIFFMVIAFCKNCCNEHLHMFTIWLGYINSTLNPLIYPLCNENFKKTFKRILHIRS

Compound: O=C(O)COCCN1CCN(C(c2ccccc2)c2ccc(Cl)cc2)CC1 (stereo not shown) [Cetirizine Dihydrochloride]
- inhibition at 0.01 µM [1, 6]: 23.9%
- inhibition at 0.03 µM [1, 6]: 23.6%
- inhibition at 0.1 µM [1, 6]: 15.3%
- inhibition at 0.3 µM [1, 6]: 14.2%
- inhibition at 1 µM [1, 6]: 31.3%
- inhibition at 3 µM [1, 6]: 67.3%
- inhibition at 10 µM [1, 6]: 98.9%
- inhibition at 100 µM [1, 6]: 99.3%
- inhibition at 30 µM ([1]; CHO-K1, 30000 nM, antagonist assay vs 70 nM histamine, read-out: Normalized % Inhibition): 100%

Compound: CN(C)CCOC(c1ccccc1)c1ccccc1 [Diphenhydramine hydrochloride, reference compound]
- Effect on percentage infection (in words) [2]: slight reduction in percentage infection was seen
- Effect on percentage infection (in words) ([2]; Therapeutic treatment, Delta strain): slight reduction in percentage infection was seen

Compound: NCCc1c[nH]cn1 [Histamine]
- RLU (maximum Relative Light Unit) [1]: 3431.5 RLU

Compound: CCC(CC)COC(=O)[C@H](C)N[P@](=O)(OC[C@H]1O[C@@](C#N)(c2ccc3c(N)ncnn23)[C@H](O)[C@@H]1O)Oc1ccccc1 [Remdesivir]
- viability at 0.004 µg/mL [3, 7]: 105%
- viability at 0.012 µg/mL [3, 7]: 91.3%
- viability at 0.038 µg/mL [3, 7]: 96.8%
- viability at 0.12 µg/mL [3, 7]: 105%
- viability at 0.38 µg/mL [3, 7]: 101%
- viability at 1.202 µg/mL [3, 7]: 89.8%
- viability at 3.797 µg/mL [3, 7]: 36.8%
- EC50 ([3]; Severe acute respiratory syndrome coronavirus 2, VeroE6/TMPRSS2, read-out: Efficacy (EC50) Delta): ~3 µg/mL (≈ 4.98 µM)
- viability at 0.004 µg/mL [4, 7]: 101%
- viability at 0.012 µg/mL [4, 7]: 95.9%
- viability at 0.038 µg/mL [4, 7]: 106%
- viability at 0.12 µg/mL [4, 7]: 105%
- viability at 0.38 µg/mL [4, 7]: 92.8%
- viability at 1.202 µg/mL [4, 7]: 84.1%
- viability at 3.797 µg/mL [4, 7]: 44.6%
- viability at 12 µg/mL [4, 7]: 20.7%
- EC50 ([4]; Severe acute respiratory syndrome coronavirus 2, VeroE6/TMPRSS2, read-out: Efficacy (EC50) Omicron): ~3 µg/mL (≈ 4.98 µM)

Compound: CN(C)CCO[Si](C)(c1ccccc1)c1ccccc1 [Q-Ant #8, N,N-dimethyl-2-((methyldiphenylsilyl)oxy)ethan-1-amine]
- Effect on percentage infection (in words) [2]: No effect was seen
- Efficacy (EC50) Delta [2]: 483.0 µg/mL
- Selectivity index Delta (CC50/EC50) ([2]; Therapeutic treatment): 0.86
- Cytotoxicity (CC50) (Vero E6 TMPRSS2 cells; African green monkey): 415.3 µg/mL
- Toxicity (in words) (Vero E6 TMPRSS2 cells; compared with traditional antihistamines): less toxic than traditional antihistamines
- CC50 (in vitro): 613 µg/mL (≈ 2150 µM)
- viability at 0.318 µg/mL [3, 7]: 102%
- viability at 1.004 µg/mL [3, 7]: 93.9%
- viability at 3.174 µg/mL [3, 7]: 95%
- viability at 10.029 µg/mL [3, 7]: 100%
- viability at 31.691 µg/mL [3, 7]: 99.4%
- viability at 100.144 µg/mL [3, 7]: 98.2%
- viability at 316.456 µg/mL [3, 7]: 73.5%
- IC50 [1]: 33.5 nM
- inhibition at 1 µM [1, 6]: 97.7%
- inhibition at 0.0003 µM ([1]; CHO-K1, 0.3 nM, antagonist assay vs 70 nM histamine, read-out: Normalized % Inhibition): -32.6%
- inhibition at 0.001 µM ([1]; CHO-K1, 1 nM, antagonist assay vs 70 nM histamine, read-out: Normalized % Inhibition): -33.4%
- inhibition at 0.003 µM ([1]; CHO-K1, 3 nM, antagonist assay vs 70 nM histamine, read-out: Normalized % Inhibition): -31%
- inhibition at 0.01 µM ([1]; CHO-K1, 10 nM, antagonist assay vs 70 nM histamine, read-out: Normalized % Inhibition): -11.9%
- inhibition at 0.03 µM ([1]; CHO-K1, 30 nM, antagonist assay vs 70 nM histamine, read-out: Normalized % Inhibition): 29.4%
- inhibition at 0.1 µM ([1]; CHO-K1, 100 nM, antagonist assay vs 70 nM histamine, read-out: Normalized % Inhibition): 72.9%
- inhibition at 0.3 µM ([1]; CHO-K1, 300 nM, antagonist assay vs 70 nM histamine, read-out: Normalized % Inhibition): 97.1%
- Effect on percentage infection (in words) [5]: reduction in percentage infection was seen
- Efficacy (EC50) Omicron [5]: 245.6 µg/mL
- Selectivity index Omicron (CC50/EC50) ([5]; Therapeutic treatment): 1.69
- viability at 0.318 µg/mL [4, 7]: 105%
- viability at 1.004 µg/mL [4, 7]: 91.3%
- viability at 3.174 µg/mL [4, 7]: 96.8%
- viability at 10.029 µg/mL [4, 7]: 105%
- viability at 31.691 µg/mL [4, 7]: 101%
- viability at 100.144 µg/mL [4, 7]: 89.8%
- viability at 316.456 µg/mL [4, 7]: 36.8%
